# Experimental data from US20180200257A1, “METHODS FOR THE TREATMENT OF INFLAMMATORY DISORDERS” (Galapagos NV, priority 2015, published 2018).
# Tested on: subjects with moderately to severely active RA who have an inadequate response to methotrexate (MTX)
# Assay: Study 1 (add-on to MTX) - Aspartate Aminotransferase (AST) levels
# Type: in vivo, human
# Conditions: 24 weeks results
# Description: Double-blind, placebo-controlled add on study in subjects with moderately to severely active RA who have an inadequate response to methotrexate (MTX) (oral or parenteral).
# 595 subjects randomized to one of 6 dose regimens of Compound 1 (dosed as [Compound 1:HCl:3H2O]) (3 dose levels administered either once or twice daily) or placebo on top of each subject's stable dose of MTX.
# Compound 1 (dosed as [Compound 1:HCl:3H2O]) is dosed for twelve weeks once daily (q.d.) (50 mg, 100 mg or 200 mg) or twice daily (b.i.d.) (25 mg, 50 mg or 100 mg); or placebo.
# At Week 12, the subjects on placebo who have not achieved 20% improvement in swollen joint count (SJC66) and tender joint count (TJC68) are re-randomized automatically to receive Compound 1 (dosed as a [Compound 1:HCl:3H2O]) either at 100 mg q.d. or 50 mg b.i.d. doses in a blinded fashion; subjects on 50 mg q.d. who have not achieved 20% improvement in SJC66 and TJC68 will be assigned to 100 mg q.d. and subjects on 25 mg b.i.d. that have not achieved a 20% improvement in SJC66 and TJC68 will be assigned to 50 mg b.i.d. Subjects who switch treatment at week 12 are handled as if they discontinued at week 12 for the purpose of statistical analysis, whereas subjects in the other groups will maintain their randomized treatment until Week 24.
# AST levels determination is available at Quest Diagnostics, Clinical Trials, Quest House, 125-135 Staines Road, Hounslow, Middlesex, TW3 3JB, United Kingdom under Catalogue n#84450. For Study 3, the data are obtained at BARC Europe, 3B,Industrie Park, Zwijnaarde, B-9052 Ghent, Belgium.
# AST catalyzes the transamination of aspartate and 2-oxoglutarate, forming L-glutamate and oxalacetate. The oxalacetate is reduced to L-malate by malate dehydrogenase, whilst NADH is converted to NAD+, measured spectrophotometrically. Guidelines for the AST value have been issued by the association for Clinical Biochemistry and Laboratory Medicine, 130-132 Tooley Street LONDON SE1 2TU, united Kingdom, wherein the AST value should be below 34 U/l in Female and below 45 U/L in male. As disclosed in the respective study protocols for Study 1 or 2, at week 12, depending on the outcome of their treatment, the subjects may be continued in their initial treatment course, or reassigned to another treatment group in a randomized blinded fashion until week 24. Therefore, the number of subjects (N) for the period of either 12 weeks, or 24 weeks is provided to reflect this redistribution at week 12.
# [1] = continued 100 mg b.i.d., week 1
# [2] = continued 100 mg b.i.d., week 2
# [3] = continued 100 mg b.i.d., week 4
# [4] = continued 100 mg b.i.d., week 8
# [5] = continued 100 mg b.i.d., week 12
# [6] = continued 100 mg b.i.d., week 16
# [7] = continued 100 mg b.i.d., week 20
# [8] = continued 100 mg b.i.d., week 24
# [9] = from 25 mg b.i.d. to 50 mg b.i.d. at 12 weeks, week 1
# [10] = from 25 mg b.i.d. to 50 mg b.i.d. at 12 weeks, week 2
# [11] = from 25 mg b.i.d. to 50 mg b.i.d. at 12 weeks, week 4
# [12] = from 25 mg b.i.d. to 50 mg b.i.d. at 12 weeks, week 8
# [13] = from 25 mg b.i.d. to 50 mg b.i.d. at 12 weeks, week 12
# [14] = from 25 mg b.i.d. to 50 mg b.i.d. at 12 weeks, week 16
# [15] = from 25 mg b.i.d. to 50 mg b.i.d. at 12 weeks, week 20
# [16] = from 25 mg b.i.d. to 50 mg b.i.d. at 12 weeks, week 24
# [17] = from 50 mg q.d. to 100 mg q.d. at 12 weeks, week 1
# [18] = from 50 mg q.d. to 100 mg q.d. at 12 weeks, week 2
# [19] = from 50 mg q.d. to 100 mg q.d. at 12 weeks, week 4
# [20] = from 50 mg q.d. to 100 mg q.d. at 12 weeks, week 8
# [21] = from 50 mg q.d. to 100 mg q.d. at 12 weeks, week 12
# [22] = from 50 mg q.d. to 100 mg q.d. at 12 weeks, week 16
# [23] = from 50 mg q.d. to 100 mg q.d. at 12 weeks, week 20
# [24] = from 50 mg q.d. to 100 mg q.d. at 12 weeks, week 24
# [25] = placebo switched to 50 mg b.i.d. at week 12, week 16
# [26] = placebo switched to 50 mg b.i.d. at week 12, week 20
# [27] = placebo switched to 50 mg b.i.d. at week 12, week 24
# [28] = placebo switched to 100 mg q.d. at week 12, week 16
# [29] = placebo switched to 100 mg q.d. at week 12, week 20
# [30] = placebo switched to 100 mg q.d. at week 12, week 24
compound,measurement,setting,value
"O=C(Nc1nc2cccc(-c3ccc(CN4CCS(=O)(=O)CC4)cc3)n2n1)C1CC1 [Compound 1, cyclopropanecarboxylic acid {5-[4-(1,1-dioxo-thiomorpholin-4-ylmethyl)-phenyl]-[1,2,4]triazolo[1,5-a]pyridin-2-yl}-amide]",Study 1 - AST Mean CFB,"continued 50 mg q.d., week 12",0.6 IU/L
same,Study 1 - AST Mean percentage CFB,"continued 50 mg q.d., week 12",11.4%
same,Study 1 - AST Mean CFB,"continued 50 mg q.d., week 16",1.4 IU/L
same,Study 1 - AST Mean percentage CFB,"continued 50 mg q.d., week 16",15.1%
same,Study 1 - AST Mean CFB,"continued 50 mg q.d., week 20",2.1 IU/L
same,Study 1 - AST Mean percentage CFB,"continued 50 mg q.d., week 20",16.8%
same,Study 1 - AST Mean CFB,"continued 50 mg q.d., week 24",1.0 IU/L
same,Study 1 - AST Mean percentage CFB,"continued 50 mg q.d., week 24",12.9%
same,Study 1 - AST Mean CFB,[1],1.4 IU/L
same,Study 1 - AST Mean percentage CFB,[1],10.0%
same,Study 1 - AST Mean CFB,[2],2.3 IU/L
same,Study 1 - AST Mean percentage CFB,[2],14.1%
same,Study 1 - AST Mean CFB,[3],2.6 IU/L
same,Study 1 - AST Mean percentage CFB,[3],19.1%
same,Study 1 - AST Mean CFB,[4],1.9 IU/L
same,Study 1 - AST Mean percentage CFB,[4],17.4%
same,Study 1 - AST Mean CFB,[5],2.5 IU/L
same,Study 1 - AST Mean percentage CFB,[5],20.1%
same,Study 1 - AST Mean CFB,[6],3.5 IU/L
same,Study 1 - AST Mean percentage CFB,[6],25.2%
same,Study 1 - AST Mean CFB,[7],3.0 IU/L
same,Study 1 - AST Mean percentage CFB,[7],23.1%
same,Study 1 - AST Mean CFB,[8],5.0 IU/L
same,Study 1 - AST Mean percentage CFB,[8],37.6%
same,Study 1 - AST Mean CFB,"continued 100 mg q.d., week 1",3.0 IU/L
same,Study 1 - AST Mean percentage CFB,"continued 100 mg q.d., week 1",13.5%
same,Study 1 - AST Mean CFB,"continued 100 mg q.d., week 2",1.0 IU/L
same,Study 1 - AST Mean percentage CFB,"continued 100 mg q.d., week 2",9.4%
same,Study 1 - AST Mean CFB,"continued 100 mg q.d., week 4",1.6 IU/L
same,Study 1 - AST Mean percentage CFB,"continued 100 mg q.d., week 4",11.2%
same,Study 1 - AST Mean CFB,"continued 100 mg q.d., week 8",2.8 IU/L
same,Study 1 - AST Mean percentage CFB,"continued 100 mg q.d., week 8",17.1%
same,Study 1 - AST Mean CFB,"continued 100 mg q.d., week 12",2.4 IU/L
same,Study 1 - AST Mean percentage CFB,"continued 100 mg q.d., week 12",15.7%
same,Study 1 - AST Mean CFB,"continued 100 mg q.d., week 16",1.5 IU/L
same,Study 1 - AST Mean percentage CFB,"continued 100 mg q.d., week 16",11.5%
same,Study 1 - AST Mean CFB,"continued 100 mg q.d., week 20",2.6 IU/L
same,Study 1 - AST Mean percentage CFB,"continued 100 mg q.d., week 20",19.2%
same,Study 1 - AST Mean CFB,"continued 100 mg q.d., week 24",4.4 IU/L
same,Study 1 - AST Mean percentage CFB,"continued 100 mg q.d., week 24",28.6%
same,Study 1 - AST Mean CFB,"continued 200 mg q.d., week 1",3.1 IU/L
same,Study 1 - AST Mean percentage CFB,"continued 200 mg q.d., week 1",16.1%
same,Study 1 - AST Mean CFB,"continued 200 mg q.d., week 2",1.9 IU/L
same,Study 1 - AST Mean percentage CFB,"continued 200 mg q.d., week 2",12.8%
same,Study 1 - AST Mean CFB,"continued 200 mg q.d., week 4",2.7 IU/L
same,Study 1 - AST Mean percentage CFB,"continued 200 mg q.d., week 4",18.7%
same,Study 1 - AST Mean CFB,"continued 200 mg q.d., week 8",4.5 IU/L
same,Study 1 - AST Mean percentage CFB,"continued 200 mg q.d., week 8",27.2%
same,Study 1 - AST Mean CFB,"continued 200 mg q.d., week 12",4.8 IU/L
same,Study 1 - AST Mean percentage CFB,"continued 200 mg q.d., week 12",28.8%
same,Study 1 - AST Mean CFB,"continued 200 mg q.d., week 16",6.8 IU/L
same,Study 1 - AST Mean percentage CFB,"continued 200 mg q.d., week 16",36.8%
same,Study 1 - AST Mean CFB,"continued 200 mg q.d., week 20",4.0 IU/L
same,Study 1 - AST Mean percentage CFB,"continued 200 mg q.d., week 20",23.3%
same,Study 1 - AST Mean CFB,"continued 200 mg q.d., week 24",5.2 IU/L
same,Study 1 - AST Mean percentage CFB,"continued 200 mg q.d., week 24",30.6%
same,Study 1 - AST Mean CFB,[9],−5.0 IU/L
same,Study 1 - AST Mean percentage CFB,[9],−12.5%
same,Study 1 - AST Mean CFB,[10],−2.3 IU/L
same,Study 1 - AST Mean percentage CFB,[10],−0.7%
same,Study 1 - AST Mean CFB,[11],−2.9 IU/L
same,Study 1 - AST Mean percentage CFB,[11],−2.7%
same,Study 1 - AST Mean CFB,[12],−4.1 IU/L
same,Study 1 - AST Mean percentage CFB,[12],−7.2%
same,Study 1 - AST Mean CFB,[13],−1.0 IU/L
same,Study 1 - AST Mean percentage CFB,[13],4.5%
same,Study 1 - AST Mean CFB,[14],−3.3 IU/L
same,Study 1 - AST Mean percentage CFB,[14],−2.3%
same,Study 1 - AST Mean CFB,[15],−0.6 IU/L
same,Study 1 - AST Mean percentage CFB,[15],8.2%
same,Study 1 - AST Mean CFB,[16],0.6 IU/L
same,Study 1 - AST Mean percentage CFB,[16],14.2%
same,Study 1 - AST Mean CFB,[17],0.3 IU/L
same,Study 1 - AST Mean percentage CFB,[17],5.0%
same,Study 1 - AST Mean CFB,[18],0.0 IU/L
same,Study 1 - AST Mean percentage CFB,[18],3.4%
same,Study 1 - AST Mean CFB,[19],−0.5 IU/L
same,Study 1 - AST Mean percentage CFB,[19],3.6%
same,Study 1 - AST Mean CFB,[20],−0.4 IU/L
same,Study 1 - AST Mean percentage CFB,[20],3.0%
same,Study 1 - AST Mean CFB,[21],0.1 IU/L
same,Study 1 - AST Mean percentage CFB,[21],4.2%
same,Study 1 - AST Mean CFB,[22],−0.9 IU/L
same,Study 1 - AST Mean percentage CFB,[22],−0.2%
same,Study 1 - AST Mean CFB,[23],0.4 IU/L
same,Study 1 - AST Mean percentage CFB,[23],4.9%
same,Study 1 - AST Mean CFB,[24],−1.7 IU/L
same,Study 1 - AST Mean percentage CFB,[24],−2.5%
same,Study 1 - AST Mean CFB,[25],2.1 IU/L
same,Study 1 - AST Mean percentage CFB,[25],14.9%
same,Study 1 - AST Mean CFB,[26],−0.1 IU/L
same,Study 1 - AST Mean percentage CFB,[26],1.9%
same,Study 1 - AST Mean CFB,[27],3.5 IU/L
same,Study 1 - AST Mean percentage CFB,[27],19.7%
same,Study 1 - AST Mean CFB,[28],1.3 IU/L
same,Study 1 - AST Mean percentage CFB,[28],1.0%
same,Study 1 - AST Mean CFB,[29],1.2 IU/L
same,Study 1 - AST Mean percentage CFB,[29],9.8%
same,Study 1 - AST Mean CFB,[30],3.2 IU/L
same,Study 1 - AST Mean percentage CFB,[30],23.1%
